Tested on: Gaeumannomyces graminis var. tritici (Ggt)
Assay: In vitro Assay: mycelial growth of Ggt on minimal media agar plates containing test compound
Assay type: cell-based
Conditions: dark, 19-20° C., 4 to 5 days, diameter of mycelial growth; for inhibition at 0.1 ppm / inhibition at 1 ppm / inhibition at 10 ppm: Gaeumannomyces graminis; for inhibition at 0.1 ppm: read-out: In vitro (ppm) 0.1, Percent Inhibition; for inhibition at 1 ppm: read-out: In vitro (ppm) 1, Percent Inhibition; for inhibition at 10 ppm: read-out: In vitro (ppm) 10, Percent Inhibition
Method: The test compounds (0.25 mL of an appropriate stock solution in acetone) are incorporated into 25 mL minimal media agar [(prepared by autoclaving a solution of 17.5 g Czapek Dox broth (Difco), 7.5 g purified agar or Bacto-agar (Difco), and 500 mL distilled/deionized water, and then adding 50 μL of 1 mg/mL thiamine hydrochloride and 50 μL of 1 mg/mL biotin in 5% ethanol] and plates are prepared.
Each plate is inoculated by placing in a triangular shape three 4-mm plugs of Gaeumannomyces graminis var. tritici (Ggt) grown on the minimal media agar described above. The plates are incubated in the dark at 19-20° C. for 4 to 5 days. The growth of the fungus is measured as the diameter of the mycelial growth. The result is expressed as Percent Inhibition, calculated as [1-[(mm growth on treated plate −4)/(mm growth on control plate −4)]]×100.

| Structure (SMILES) | inhibition at 0.1 ppm (0.1 ppm in minimal media agar) [%] | inhibition at 1 ppm (1 ppm in minimal media agar) [%] | inhibition at 10 ppm (10 ppm in minimal media agar) [%] | In vitro (ppm) 0.1, Percent Inhibition (0.1 ppm in minimal media agar) [%] | In vitro (ppm) 1, Percent Inhibition (1 ppm in minimal media agar) | In vitro (ppm) 10, Percent Inhibition (10 ppm in minimal media agar) [%] |
| --- | --- | --- | --- | --- | --- | --- |
| CCN(C)C(=O)c1c(Cl)cccc1N(C)C(C)(C)C [Example 189, 2-Chloro-6-[(1,1-dimethylethyl)methylamino]-N-ethyl-N-methylbenzamide] | 4 | 13 | 65 |  |  |  |
| CCN(CC)C(=O)c1c(C)ccc(F)c1[Si](C)(C)C(C)(C)C [Example 10, 2-[(1,1-Dimethylethyl)dimethylsilyl]-N,N-diethyl-3-fluoro-6-methylbenzamide] | < 0 | < 0 | 50 |  |  |  |
| CCCCCCCC[Si](C)(C)c1cccc(Cl)c1C(=O)NCC [Example 182, 2-Chloro-6-(dimethyloctylsilyl)-N-ethylbenzamide] | 30 | 58 | 73 |  |  |  |
| C[Si](C)(C)c1cccc(Cl)c1C(=O)NC(c1ccccc1)n1nnc2ccccc21 (stereo not drawn) [Example 170, N-(1H-Benzotriazol-1-ylphenylmethyl)-2-chloro-6-(trimethylsilyl)benzamide] | 12 | 9 | 63 |  |  |  |
| CN(CC=Cc1ccccc1)C(=O)c1c(Cl)cccc1[Si](C)(C)C [Example 105, 2-Chloro-N-methyl-N-(3-phenyl-2-propenyl)-6-(trimethylsilyl)benzamide] | 3 | 37 | 84 |  |  |  |
| CCN(CC)C(=O)c1c(I)ccc(F)c1[Si](C)(C)C [Example 40, N,N-Diethyl-3-fluoro-6-iodo-2-(trimethylsilyl)benzamide] | < 0 | < 0 | 53 |  |  |  |
| CCC(C)SC(=O)c1c(Cl)cccc1[Si](C)(C)C (stereo not drawn) [Example 80, 2-Chloro-6-(trimethylsilyl)-benzenecarbothioic acid, S-(1-methylpropyl) ester] | < 0 | 4 | 46 |  |  |  |
| CCN(COC)C(=O)c1ccccc1[Si](C)(C)C [Example 50, N-Ethyl-N-(methoxymethyl)-2-(trimethylsilyl)benzamide] | 3 | 10 | 20 |  |  |  |
| CCNC(=O)c1c(-c2ccccc2)cccc1[Si](C)(C)C [Example 221, N-Ethyl-2-phenyl-6-(trimethylsilyl)benzamide] | 15 | 46 | 85 |  |  |  |
| CCNC(=O)c1c(Cl)cccc1[Si](C)(C)C(C)(C)C [Example 185, 2-Chloro-6-[(1,1-dimethylethyl)dimethylsilyl]-N-ethylbenzamide] | 48 | 56 | 72 |  |  |  |
| CCNC(=O)c1c([Si](C)(C)C)ccc(/C=C/[N+](=O)[O-])c1Cl [Example 241, 2-Chloro-N-ethyl-3-(2-(E)-nitro-ethenyl)-6-(trimethylsilyl)benzamide] | 13 | 87 | 100 |  |  |  |
| CC(C)N(C(=O)c1c(Cl)cccc1[Si](C)(C)C)C(C)C [Example 126, 2-Chloro-N,N-bis(1-methylethyl)-6-(trimethylsilyl)benzamide] | 15 | 4 | 93 |  |  |  |
| CCNC(=O)c1c([Si](C)(C)C)ccc(C)c1Cl [Example 230, 2-Chloro-N-ethyl-3-methyl-6-(trimethylsilyl)benzamide] | 88 | 96 | 96 |  |  |  |
| CCNC(=O)c1sc(C)c(C)c1[Si](C)(C)C [Example 286, 4,5-Dimethyl-N-ethyl-3-(trimethylsilyl)-2-thiophenecarboxamide] | 76 | 93 | 100 |  |  |  |
| CCNC(=O)c1c(Cl)cc(Cl)cc1[Si](C)(C)C [Example 234, 2,4-Dichloro-N-ethyl-6-(trimethylsilyl)benzamide] | < 0 | 32 | 81 |  |  |  |
| CCN(CC)C(=O)c1c(Cl)cccc1N(C)C(C)(C)C [Example 281, 2-Chloro-6-[(1,1-dimethylethyl)methylamino]-N,N-(diethyl)benzamide] |  |  |  | 4 | N (If the calculation resulted in “0” or less, as compared to the untreated control, a “N” is shown to indicate no control.) | 43 |
| CCN(C(=O)c1c(Cl)cccc1[Si](C)(C)C)c1ccccc1 [Example 24, 2-Chloro-N-ethyl-N-phenyl-6-(trimethylsilyl)benzamide] | < 0 | < 0 | 100 |  |  |  |

| Structure (SMILES) | inhibition at 0.1 ppm (0.1 ppm in minimal media agar) [%] | inhibition at 1 ppm (1 ppm in minimal media agar) [%] | inhibition at 10 ppm (10 ppm in minimal media agar) [%] | In vitro (ppm) 0.1, Percent Inhibition (0.1 ppm in minimal media agar) [%] | In vitro (ppm) 1, Percent Inhibition (1 ppm in minimal media agar) | In vitro (ppm) 10, Percent Inhibition (10 ppm in minimal media agar) [%] |
| --- | --- | --- | --- | --- | --- | --- |
| CCNC(=O)c1cc(NC)ccc1[Si](C)(C)C [Example 275, N-Ethyl-5-(methylamino)-2-(trimethylsilyl)benzamide] | 22 | 81 | 94 |  |  |  |
| CCNC(=O)c1cc(NC(=O)c2ccccc2)ccc1[Si](C)(C)C [Example 240, 5-(Benzoylamino)-N-ethyl-2-(trimethylsilyl)benzamide] | 26 | 22 | 65 |  |  |  |
| CCNC(=O)c1ccsc1[Si](C)(C)C [Example 70, N-Ethyl-2-(trimethylsilyl)-3-thiophenecarboxamide] | < 0 | 15 | 44 |  |  |  |
| C[Si](C)(C)c1cccc(Cl)c1NC(=O)C(Cl)(Cl)Cl [Example 175, 2,2,2-Trichloro-N-[2-chloro-6-(trimethylsilyl)phenyl]acetamide] | 35 | 48 | 60 |  |  |  |
| C[Si](C)(C)c1cccc(Cl)c1C(=O)NCCCCl [Example 30, 2-Chloro-N-(3-chloropropyl)-6-(trimethylsilyl)benzamide] | < 0 | 60 | 80 |  |  |  |
| CCNC(=O)c1sc([S+](C)[O-])cc1[Si](C)(C)C (stereo not drawn) [Example 260, N-Ethyl-5-(methylsulfinyl)-3-(trimethylsilyl)-2-thiophenecarboxamide] | < 0 | < 0 | 77 |  |  |  |
| CCNC(=O)c1c([Si](C)(C)C)ccc(C(=O)OC)c1Cl [Example 244, 2-Chloro-3-[(ethylamino)carbonyl]-4-(trimethylsilyl)benzoic acid, methyl ester] | 10 | 20 | 53 |  |  |  |
| C[Si](C)(C)c1cc(Cl)sc1C(=O)NCCO [Example 263, 5-Chloro-N-(2-hydroxyethyl)-3-trimethylsilyl-2-thiophenecarboxamide] | 7 | < 0 | 50 |  |  |  |
| CC(C)NC(=O)NC(=O)c1c(Cl)cccc1[Si](C)(C)C [Example 173, 2-Chloro-N-(isopropylaminocarbonyl)-6-(trimethylsilyl)benzamide] | 4 | 12 | 92 |  |  |  |
| CCNC(=O)c1c(Cl)cccc1[Si](C)(C)c1ccccc1 [Example 184, 2-Chloro-6-(dimethylphenylsilyl)-N-ethylbenzamide] | < 0 | 11 | 83 |  |  |  |
| CCNC(=O)c1nc(Cl)sc1[Si](C)(C)C [Example 282, 2-Chloro-N-ethyl-5-(trimethylsilyl)-4-thiazolecarboxamide] | 3 | 15 | 78 |  |  |  |
| CCN(CC)C(=O)c1c(F)cccc1[S+]([O-])C(C)(C)C (stereo not drawn) [Example 195, N,N-Diethyl 2-[(1,1-dimethylethyl)sulfinyl]-6-fluorobenzamide] | 35 | 29 | 56 |  |  |  |
| CCN(CC)C(=O)c1c([Si](C)(C)C)coc1[Si](C)(C)C [Example 250, N,N-Diethyl-2,4-bis(trimethylsilyl)-3-furancarboxamide] | < 0 | < 0 | 41 |  |  |  |
| CC(CO)NC(=O)c1c(Cl)cccc1[Si](C)(C)C (stereo not drawn) [Example 154, 2-Chloro-N-(2-hydroxy-1-methylethyl)-6-(trimethylsilyl)benzamide] | < 0 | < 0 | 69 |  |  |  |
| CCNC(=O)c1sncc1[Si](C)(C)C [Example 259, N-Ethyl-4-(trimethylsilyl)-5-isothiazolecarboxamide] | 19 | 11 | 80 |  |  |  |
| CCNC(=O)c1oc([Si](C)(C)C)cc1[Si](C)(C)C [Example 251, N-Ethyl-3,5-bis(trimethylsilyl)-2-furancarboxamide] | 3 | 36 | 97 |  |  |  |
| CCNC(=O)c1c(F)cccc1[Si](C)(C)C [Example 117, N-Ethyl-2-fluoro-6-(trimethylsilyl)benzamide] | 36 | 94 | 97 |  |  |  |

Reference: patent publication US6410558B1, “Fungicides for the control of take-all disease of plants” (Monsanto Technology LLC, priority 1991, dated 2002)
